Data set [1] can be described thus: Solubility test in demineralized water. The settings on record: 0.3 mM, film, sonicated, overnight. It counts as physicochemical. As to the method:
Next, compounds were weighed and dissolved in chloroform/methanol. The solutions were left to dry in a vial forming a film of the materials. The vials were put in vacuo to remove traces of organic solvent. Demineralized water was added, such that the concentration of the compounds would become 0.3 mM in case full dissolution would take place (0.3 mM corresponds to 0.3 mg/mL for a MW=1000 Dalton compound). The vial was briefly sonicated in a water bath, left to stand overnight, and once again sonicated (sonication at RT). The appearances of the solutions at RT were checked to assess solubilities. In the below table the results are compiled.

The target of data set [2] is T1, human NOD2 (hNOD2) (Homo sapiens, UniProt Q9HC29).
T1 construct: host or cells: HEK-Blue hNOD2 cells
T1 sequence (Q9HC29 whole entry): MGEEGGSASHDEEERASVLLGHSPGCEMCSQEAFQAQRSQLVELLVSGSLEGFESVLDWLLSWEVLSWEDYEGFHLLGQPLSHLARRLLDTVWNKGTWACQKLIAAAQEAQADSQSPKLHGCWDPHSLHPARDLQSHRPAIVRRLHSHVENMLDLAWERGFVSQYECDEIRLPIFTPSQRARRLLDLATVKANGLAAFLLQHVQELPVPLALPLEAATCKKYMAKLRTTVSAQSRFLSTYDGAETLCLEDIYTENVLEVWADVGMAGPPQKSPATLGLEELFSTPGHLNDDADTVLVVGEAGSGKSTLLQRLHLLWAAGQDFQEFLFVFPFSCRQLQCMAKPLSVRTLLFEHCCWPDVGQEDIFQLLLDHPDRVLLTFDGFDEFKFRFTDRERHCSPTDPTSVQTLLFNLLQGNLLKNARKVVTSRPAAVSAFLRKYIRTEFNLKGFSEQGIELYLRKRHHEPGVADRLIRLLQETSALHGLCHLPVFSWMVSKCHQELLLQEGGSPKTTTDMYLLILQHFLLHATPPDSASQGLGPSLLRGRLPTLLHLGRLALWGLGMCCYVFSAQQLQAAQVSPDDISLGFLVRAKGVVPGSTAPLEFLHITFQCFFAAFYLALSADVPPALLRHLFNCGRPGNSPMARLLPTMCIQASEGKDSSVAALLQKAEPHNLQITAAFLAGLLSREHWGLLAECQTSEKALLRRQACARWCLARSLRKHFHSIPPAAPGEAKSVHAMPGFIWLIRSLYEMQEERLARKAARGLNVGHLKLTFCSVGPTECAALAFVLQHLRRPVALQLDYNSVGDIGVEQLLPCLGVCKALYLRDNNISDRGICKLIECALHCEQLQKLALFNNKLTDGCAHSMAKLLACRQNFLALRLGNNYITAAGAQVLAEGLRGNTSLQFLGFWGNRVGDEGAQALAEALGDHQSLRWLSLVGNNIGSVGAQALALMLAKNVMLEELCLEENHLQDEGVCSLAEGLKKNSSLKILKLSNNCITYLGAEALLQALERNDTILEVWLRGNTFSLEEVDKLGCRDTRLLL
Description: In vitro NOD2 activation assay in HEK-Blue hNOD2 cells. It counts as cell-based. The settings on record: overnight incubation, FIG. 3. As to the method: The stimulation of human NOD2 (hNOD2) by compounds disclosed herein was studied by monitoring activation of NF-κB in HEK-Blue™ hNOD2 cells (Invitrogen). 50,000 HEK-Blue™ hNOD2 cells were seeded in HEK-Blue™ Detection Medium in flat-bottom tissue culture plates. Concentration ranges of the test article (compounds diluted from DMSO-solutions (17.8 mmoL/L), first with demineralized water and then with PBS to the desired concentrations) were added to the cells in the tissue culture plates. Cells were incubated overnight at 37° C. and 5% CO2. The following day, supernatants were collected in an ELISA plate and the OD was measured at 620 nm using a spectrophotometer.
The signal in this assay is based on NOD2 stimulation with a ligand which subsequently activates NF-κB and AP-1, resulting in the production of SEAP. Levels of SEAP were then determined with HEK-Blue™ Detection medium (Invitrogen). The hydrolysis of the substrate in the medium by SEAP produces a purple/blue color that was then measured with an Absorbance microplate reader. OD values are mapped based on test article concentration and are depicted in FIG. 3. Assay performance was validated with muramyl dipeptide (CAS number [53678-77-6]).

Data set [3] is described as follows: HPLC retention times to compare lipophilicities. In kind it is physicochemical. The settings on record: Kinetex EVO C18 column, same gradient A to B; higher retention time = more lipophilic. As for the experimental part: Experimentally, one can also compare lipophilicities of molecules by performing HPLC using the same elution gradient. Molecules that have higher affinities with the hydrophobic C18-material of the column are more lipophilic and as a result have a higher retention time.
Methods: HPLC-MS(SIM) and HPLC-ELSD were performed on a Phenomenex Kinetex 5 micrometer EVO C18 100A LC-column (50×2.1 mm) employing the same gradient from A to B eluent, where A=20 mM NH4HCO2 in H2O with 0.1 v/v % formic acid, and B=2-propanol/MeCN/H2O 85:15:5, also with 20 mM NH4HCO2 and 0.1 v/v % formic acid.

The nature of data set [4]: Solubility test in PBS buffer. In kind it is physicochemical. The settings on record: PBS pH 7.4, 0.2 mg/mL; for Appearance at 37° C.: 1 minute in 37° C. water bath; for Appearance at RT: room temperature. As for the experimental part:
First, compounds were weighed in a vial and PBS buffer (137, 2.7, 10 and 1.8 mM in NaCl, KCl, Na2HPO4, KH2PO4, respectively; pH=7.4) was added, such that the concentration would become 0.2 mg/mL in case full dissolution would take place. The sample was shaken, left to stand for an hour, shaken again, and then the appearance of the solution at room temperature (RT) was checked. Next, the sample was warmed for 1 minute in a water bath of 37° C., and the appearance of the solution was checked again. In the below table the results are compiled.

Data set [5] in a line: Degradation by augmented oxidation test. In kind it is physicochemical. The settings on record: 12% hydrogen peroxide in water, 80° C., 4 hours. As for the experimental part:
The reference compounds MDP and MDP(Bn) as well as the Bn-substituted compounds from Example 7 (i.e. MDP(Bn)-DSPE[click] and Example 14 (i.e. MTP(Bn)-a-DPPE) were mixed with 12% hydrogen peroxide in water and were heated to 80° C. for 4 hours, in order to get a fast degradation of the molecules by oxidation, mimicking slower in-vivo oxidation events.
The resulting reaction mixtures were diluted with acetonitrile and water (1:1) for the MDP and MDP(Bn) test solutions, or with iPrOH, acetonitrile and water (40:7.5:52.5) with 0.1% formic acid and 20 mM ammonium formate for the MDP(Bn)-DSPE[click] and the MTP(Bn)-a-DPPE solutions. The 4 diluted samples were analyzed by HPLC-MS. For reference, the 4 starting materials were also analyzed by HPLC-MS, as well as MDP-DSPE[click] and MTP-a-DPPE, i.e. the de-benzylated reference compounds to the Bn-substituted test molecules.

SMILES strings stand for the structures.

Turning to `CCCCCCCCCCCCCCCCCC(=O)OC[C@H](COP(=O)(O)OCCNC(=O)Cn1cc(CNC(=O)CC[C@@H](NC(=O)[C@H](C)NC(=O)[C@@H](C)O[C@H]2[C@H](O)[C@@H](CO)OC(O)[C@@H]2NC(C)=O)C(N)=O)nn1)OC(=O)CCCCCCCCCCCCCCCCC` (stereo partly shown) [Example 2, MDP-DSPE [Click]], in data set [1], the “Appearance at RT” value is “Gelly/hazy/precipitate”. Besides, in data set [2], the “NOD2 activation (NF-κB/SEAP reporter, OD at 620 nm)” value (from here on “NOD2 activation”) was “comparable”. Also, in data set [3], the “HPLC-ELSD t” value came out at 4.58 min and the “HPLC-MS t” value turned out to be 4.46 min. In addition, in data set [4], the “Appearance at 37° C.” value is recorded as “hazy” and the “Appearance at RT” value is reported as “hazy”.
On to `CC(=O)N[C@H]1C(O)O[C@H](CO)[C@@H](O)[C@@H]1O[C@H](C)C(=O)N[C@@H](C)C(=O)N[C@H](CCC(=O)NCc1cn(CC(=O)O[C@H]2CC[C@@]3(C)C(=CC[C@H]4[C@@H]5CC[C@H]([C@H](C)CCCC(C)C)[C@@]5(C)CC[C@@H]43)C2)nn1)C(N)=O` (stereo partly shown) [Example 3, MDP-Chol [Click]], for which the “Appearance at RT” value in data set [1] is reported as “Gelly/hazy/precipitate”; in data set [4], “suspension”. The “NOD2 activation” value in data set [2] is recorded as “comparable”. In data set [4], the “Appearance at 37° C.” value is reported as “hazy”.
Consider `CCCCCCCCCCCCCCCCCC(=O)OC[C@H](COP(=O)(O)OCCNC(=O)Cn1cc(CNC(=O)CC[C@@H](NC(=O)[C@H](C)NC(=O)[C@@H](C)O[C@H]2[C@H](O)[C@@H](CO)OC(OCc3ccccc3)[C@@H]2NC(C)=O)C(N)=O)nn1)OC(=O)CCCCCCCCCCCCCCCCC` (stereo partly shown) [Example 7, MDP(Bn)-DSPE [Click]], for which the “Appearance at RT” value in data set [1] is on record as “Hazy”. Also, in data set [2], the “NOD2 activation” value is on record as “comparable”. Also, the “Oxidative degradation, products by HPLC-MS” value in data set [5] is on record as “mainly degraded via oxidation of the Bn-group to a benzoate group (+14) followed by hydrolysis of the benzoate (−104)”. In data set [3], the “HPLC-ELSD t” value worked out at 5.16 min and the “HPLC-MS t” value came to 5.16 min. Moreover, in data set [4], the “Appearance at 37° C.” value is given as “hazy” and the “Appearance at RT” value is given as “suspension”.
As for `CC(=O)N[C@H]1[C@@H](OCc2ccccc2)O[C@H](CO)[C@@H](O)[C@@H]1O[C@H](C)C(=O)N[C@@H](C)C(=O)N[C@H](CCC(=O)NCc1cn(CC(=O)O[C@H]2CC[C@@]3(C)C(=CC[C@H]4[C@@H]5CC[C@H]([C@H](C)CCCC(C)C)[C@@]5(C)CC[C@@H]43)C2)nn1)C(N)=O` [Example 8, MDP(Bn)-Chol[Click]], the “Appearance at RT” value in data set [1] was “Precipitate”; in data set [4], “suspension”. In addition, the “NOD2 activation” value in data set [2] is listed as “able to activate NOD2, but seemingly to a lesser extent”. Also, the “Appearance at 37° C.” value in data set [4] is “suspension”.
Regarding `CCCCCCCCCCCCCCCCCC(=O)OCc1cn(CCCC[C@H](NC(=O)CC[C@@H](NC(=O)[C@H](C)NC(=O)[C@@H](C)O[C@H]2[C@H](O)[C@@H](CO)OC(OCc3ccccc3)[C@@H]2NC(C)=O)C(N)=O)C(N)=O)nn1` (stereo partly shown) [Example 9, MTP-b-C18[Invclick]], the “Appearance at RT” value in data set [1] was “Precipitate”.
As for `CCCCCCCCCCCCCCCCCC(=O)NCCCC[C@H](NC(=O)CC[C@@H](NC(=O)[C@H](C)NC(=O)[C@@H](C)O[C@H]1[C@H](O)[C@@H](CO)OC(OCc2ccccc2)[C@@H]1NC(C)=O)C(N)=O)C(N)=O` (stereo partly shown) [Example 10, MTP-b-C18], in data set [1], the “Appearance at RT” value is on record as “Precipitate”.
For the compound `CCCCCCCCCCCCCCCCCCNC(=O)CC[C@@H](NC(=O)[C@H](C)NC(=O)[C@@H](C)O[C@H]1[C@H](O)[C@@H](CO)OC(O)[C@@H]1NC(C)=O)C(N)=O` (stereo partly shown) [Example 11, MDP-C18], the “Appearance at RT” value in data set [1] is reported as “Precipitate”. Besides, in data set [4], the “Appearance at 37° C.” value was “suspension” and the “Appearance at RT” value was “suspension”.
With `CCCCCCCCCCCCCCCCCC(=O)OC[C@H](COC(=O)NCCCC[C@H](NC(=O)CC[C@@H](NC(=O)[C@H](C)NC(=O)[C@@H](C)O[C@H]1[C@H](O)[C@@H](CO)OC(OCc2ccccc2)[C@@H]1NC(C)=O)C(N)=O)C(N)=O)OC(=O)CCCCCCCCCCCCCCCCC` (stereo partly shown) [Example 13, MTP-b-DSG], in data set [1], the “Appearance at RT” value was “Gel/precipitate”. In addition, in data set [2], the “NOD2 activation” value was “able to activate NOD2, but seemingly to a lesser extent”. In addition, in data set [3], the “HPLC-ELSD t” value was 5.49 min. For the same compound, in data set [4], the “Appearance at 37° C.” value is recorded as “suspension” and the “Appearance at RT” value is “suspension”.
Regarding `CCCCCCCCCCCCCCCC(=O)OC[C@H](COP(=O)(O)OCCNC(=O)[C@H](C)NC(=O)CC[C@@H](NC(=O)[C@H](C)NC(=O)[C@@H](C)O[C@H]1[C@H](O)[C@@H](CO)OC(OCc2ccccc2)[C@@H]1NC(C)=O)C(N)=O)OC(=O)CCCCCCCCCCCCCCC` (stereo partly shown) [Example 14, MTP(Bn)-a-DPPE], in data set [3], the “HPLC-ELSD t” value is reported as 3.5 min and the “HPLC-MS t” value amounted to 3.61 min.
`CCCCCCCCCCCCCCCCCC(=O)OC[C@H]1OC(O)[C@H](NC(C)=O)[C@@H](O[C@H](C)C(=O)N[C@@H](C)C(=O)N[C@H](CCC(=O)O)C(N)=O)[C@@H]1O` (stereo partly drawn) [MDP-C18[mur], N-Acetylmuramyl-L-Alanyl-D-Isoglutamine-6-O-Stearoyl, reference compound]: the “Appearance at RT” value is listed as “Clear” in data set [1] and “clear” in data set [4]. Further, in data set [3], the “HPLC-MS t” value is listed as 0.95 min. Further, the “Appearance at 37° C.” value in data set [4] was “clear”.
With `CCCCCCCCCCCCCCCC(=O)OC[C@H](COP(=O)(O)OCCNC(=O)[C@H](C)NC(=O)CC[C@@H](NC(=O)[C@H](C)NC(=O)[C@@H](C)O[C@H]1[C@H](O)[C@@H](CO)OC(OCc2ccccc2)[C@@H]1NC(C)=O)C(N)=O)OC(=O)CCCCCCCCCCCCCCC` (stereo partly shown) [MTP(Bn)-a-DPPE], the “Oxidative degradation, products by HPLC-MS” value in data set [5] is “mainly degraded via oxidation of the Bn-group to a benzoate group (+14) followed by hydrolysis of the benzoate (−104)”.
Turning to `CCCCCCCCCCCCCCCC(=O)OC[C@H](COP(=O)(O)OCCNC(=O)[C@H](C)NC(=O)CC[C@@H](NC(=O)[C@H](C)NC(=O)[C@@H](C)O[C@H]1[C@H](O)[C@@H](CO)OC(O)[C@@H]1NC(C)=O)C(N)=O)OC(=O)CCCCCCCCCCCCCCC` (stereo partly drawn) [Mifamurtide, N—(N-Acetylmuramoyl)-L-alanyl-D-alpha-glutaminyl-N-[(7R)-4-hydroxy-4-oxido-10-oxo-7-[(1-oxohexadecyl)oxy]-3,5,9-trioxa-4-phosphapentacos-1-yl]-L-alaninamide, reference compound], the “Appearance at RT” value in data set [1] was “Clear”. In data set [3], the “HPLC-ELSD t” value is listed as 3.04 min and the “HPLC-MS t” value stood at 2.85 min. Further, in data set [4], the “Appearance at 37° C.” value was “clear” and the “Appearance at RT” value is on record as “hazy”.

(Values after patent US11859021B2, “Compounds for regulating trained immunity, and their methods of use” (Trained Therapeutix Discovery, Inc., priority 2021, dated 2024).)
